From the supplement of paper PMC10307832

Key:
Test in all cases: relative viability (nuclei count vs DMSO), 5 days (fraction); higher = more cells survive
KN-93 + AZD7762 = compound: CN(C/C=C/C1=CC=C(C=C1)Cl)CC2=CC=CC=C2N(CCO)S(=O)(=O)C3=CC=C(C=C3)OC [KN-93] + NC(=O)Nc1cc(-c2cccc(F)c2)sc1C(=O)N[C@H]1CCCNC1 [AZD7762] (partner 0.2 µM)
Method in brief: (§1)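 Relative viability divides the nuclei count in treated wells by that in vehicle wells. Lung cancer cell lines were seeded in 1536-well plates, dosed by pin tool the next day, and fixed and stained after 5 days in one step with final 0.05% Triton X-100, 1% formaldehyde and 1 ug/ml Hoechst. Dosing was a single drug or a fixed anchor-drug dose plus five library-drug doses (not always all listed) in √10 steps, and values are medians of duplicate plates imaged at 4×.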

KN-93 + Dasatinib = compound: CN(C/C=C/C1=CC=C(C=C1)Cl)CC2=CC=CC=C2N(CCO)S(=O)(=O)C3=CC=C(C=C3)OC [KN-93] + Cc1nc(Nc2ncc(C(=O)Nc3c(C)cccc3Cl)s2)cc(N2CCN(CCO)CC2)n1 [Dasatinib] (partner 0.075 µM)
Method in brief: as §1

KN-93 + Trametinib = compound: CN(C/C=C/C1=CC=C(C=C1)Cl)CC2=CC=CC=C2N(CCO)S(=O)(=O)C3=CC=C(C=C3)OC [KN-93] + CC(=O)Nc1cccc(-n2c(=O)n(C3CC3)c(=O)c3c(Nc4ccc(I)cc4F)n(C)c(=O)c(C)c32)c1 [Trametinib] (partner 0.02 µM)
Method in brief: as §1

KN-93 + Palbociclib = compound: CN(C/C=C/C1=CC=C(C=C1)Cl)CC2=CC=CC=C2N(CCO)S(=O)(=O)C3=CC=C(C=C3)OC [KN-93] + CC(=O)c1c(C)c2cnc(Nc3ccc(N4CCNCC4)cn3)nc2n(C2CCCC2)c1=O [Palbociclib] (partner 0.5 µM)
Method in brief: as §1

KN-93 + Tozasertib = compound: CN(C/C=C/C1=CC=C(C=C1)Cl)CC2=CC=CC=C2N(CCO)S(=O)(=O)C3=CC=C(C=C3)OC [KN-93] + Cc1cc(Nc2cc(N3CCN(C)CC3)nc(Sc3ccc(NC(=O)C4CC4)cc3)n2)n[nH]1 [Tozasertib] (partner 0.1 µM)
Method in brief: as §1

Cell Line | relative viability (KN-93 + AZD7762; first compound 0.08 µM) | relative viability (KN-93 + AZD7762; first compound 0.253 µM) | relative viability (KN-93 + AZD7762; first compound 2.53 µM) | relative viability (KN-93 + AZD7762; first compound 8 µM) | relative viability (KN-93 + Dasatinib; first compound 0.08 µM) | relative viability (KN-93 + Dasatinib; first compound 0.253 µM) | relative viability (KN-93 + Dasatinib; first compound 2.53 µM) | relative viability (KN-93 + Dasatinib; first compound 8 µM) | relative viability (KN-93 + Trametinib; first compound 0.08 µM) | relative viability (KN-93 + Trametinib; first compound 0.253 µM) | relative viability (KN-93 + Trametinib; first compound 2.53 µM) | relative viability (KN-93 + Trametinib; first compound 8 µM) | relative viability (KN-93 + Palbociclib; first compound 0.08 µM) | relative viability (KN-93 + Palbociclib; first compound 0.253 µM) | relative viability (KN-93 + Palbociclib; first compound 2.53 µM) | relative viability (KN-93 + Palbociclib; first compound 8 µM) | relative viability (KN-93 + Tozasertib; first compound 0.08 µM) | relative viability (KN-93 + Tozasertib; first compound 0.253 µM) | relative viability (KN-93 + Tozasertib; first compound 2.53 µM) | relative viability (KN-93 + Tozasertib; first compound 8 µM)
PC-14 | 0.331 | 0.316 | 0.527 | 0.343 | 0.335 | 0.18 | 0.198 | 0.0533 | 0.553 | 0.802 | 0.696 | 0.524 | 0.483 | 0.607 | 0.751 | 0.35 | 0.642 | 0.544 | 0.583 | 0.21
NCI-H2087 | 0.821 | 1.61 | 1.16 | 1.04 | 0.793 | 1.38 | 0.882 | 0.622 | 0.249 | 0.15 | 0.19 | 0.128 | 0.228 | 0.218 | 0.208 | 0.175 | 0.248 | 0.238 | 0.267 | 0.152
H3255 | 0.878 | 0.894 | 0.989 | 0.558 | 0.366 | 0.343 | 0.511 | 0.341 | 0.643 | 0.59 | 0.671 | 0.417 | 0.322 | 0.303 | 0.3 | 0.266 | 0.539 | 0.864 | 0.82 | 0.433
NCI-H727 | 0.643 |  | 0.627 | 0.471 | 0.44 | 0.399 | 0.415 | 0.237 | 0.32 |  | 0.384 | 0.409 | 0.606 |  | 0.67 | 0.655 | 0.689 | 0.658 | 0.465 | 0.447
NCI-H460 | 0.563 | 0.556 | 0.731 | 0.328 | 0.489 | 0.526 | 0.726 | 0.35 | 0.167 | 0.111 | 0.195 | 0.0953 | 0.167 | 0.0991 | 0.147 | 0.205 | 0.397 | 0.104 | 0.381 | 0.153
NCI-H2228 |  |  |  |  | 0.597 | 0.541 | 0.631 | 0.326 | 0.413 | 0.539 | 0.573 | 0.153 | 0.723 | 0.97 | 1.09 | 0.165 | 0.274 | 0.166 | 0.243 | 0.154
NCI-H647 | 0.398 | 0.557 | 0.447 | 0.381 | 0.161 | 0.216 | 0.253 | 0.164 | 0.353 | 0.499 | 0.468 | 0.466 | 0.346 | 0.364 | 0.349 | 0.473 | 0.31 | 0.299 | 0.0549 | 0.196
NCI-H2170 | 0.623 | 0.971 | 0.845 | 0.734 | 0.501 | 0.55 | 0.718 | 0.266 | 0.796 | 1.16 | 1.02 | 0.834 | 0.35 | 0.48 | 0.403 | 0.338 | 0.755 | 0.845 | 0.729 | 0.454
